Earlier results as cited in patent publication US10456383B2, “Targeted approach in the management of Epidermolysis bullosa” (The Board of Trustees of the Leland Stanford Junior …, priority 2017, dated 2019).

Columns and labels:
[1] = topical formulations, all cases; standard serum levels required for immunosuppression 5-15 ng/ml
[2] = ointment plasticized base containing no water (PCCA)

systemic level of rapamycin [1]: less than 2 ng/ml
sirolimus stability [2]: at least 6 months
SMILES: CO[C@H]1C[C@@H]2CC[C@@H](C)[C@@](O)(O2)C(=O)C(=O)N2CCCC[C@H]2C(=O)O[C@H]([C@H](C)C[C@@H]2CC[C@@H](O)[C@H](OC)C2)CC(=O)[C@H](C)/C=C(\C)[C@@H](O)[C@@H](OC)C(=O)[C@H](C)C[C@H](C)/C=C/C=C/C=C/1C [Sirolimus]
